Article PMC4045134, “Discovery of Triterpenoids as Reversible Inhibitors of α/β-hydrolase Domain Containing 12 (ABHD12)” (PLoS ONE, 2014)
Entries after “also recorded” stand apart in the source; their conditions may differ.

How the values were obtained:
Format in all cases: biochemical
hABHD12 [1] = target: T1, hABHD12 (Homo sapiens, UniProt Q8N2K0); experiment: Fluorescent glycerol assay of 1-AG hydrolysis in hABHD12-HEK293 lysates; conditions: hABHD12-HEK293 lysates
T1 construct: expressed in transfected cells; host or cells: HEK293 (transient)
T1 sequence (Q8N2K0 1-398): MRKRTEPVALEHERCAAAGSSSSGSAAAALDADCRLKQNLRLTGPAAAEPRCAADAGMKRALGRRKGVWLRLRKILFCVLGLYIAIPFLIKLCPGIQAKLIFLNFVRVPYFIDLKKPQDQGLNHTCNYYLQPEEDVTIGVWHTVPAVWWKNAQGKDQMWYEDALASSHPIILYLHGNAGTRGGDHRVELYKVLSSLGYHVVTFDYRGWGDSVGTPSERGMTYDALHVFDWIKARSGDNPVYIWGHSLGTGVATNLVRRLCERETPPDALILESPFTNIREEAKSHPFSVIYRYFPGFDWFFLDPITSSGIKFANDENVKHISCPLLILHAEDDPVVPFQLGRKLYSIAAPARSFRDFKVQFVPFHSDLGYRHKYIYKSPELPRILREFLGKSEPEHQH

CB1R [2] = target: T2, CB1R (Rattus norvegicus, UniProt P20272); experiment: [35S]GTPγS binding, CB1R agonist activity, rat cerebellar membranes; conditions: 10 µM
T2 construct: membranes prepared from brain tissue of 4-week-old male rodents were used; from tissue; host or cells: rat cerebellar membranes
T2 sequence (P20272 whole entry): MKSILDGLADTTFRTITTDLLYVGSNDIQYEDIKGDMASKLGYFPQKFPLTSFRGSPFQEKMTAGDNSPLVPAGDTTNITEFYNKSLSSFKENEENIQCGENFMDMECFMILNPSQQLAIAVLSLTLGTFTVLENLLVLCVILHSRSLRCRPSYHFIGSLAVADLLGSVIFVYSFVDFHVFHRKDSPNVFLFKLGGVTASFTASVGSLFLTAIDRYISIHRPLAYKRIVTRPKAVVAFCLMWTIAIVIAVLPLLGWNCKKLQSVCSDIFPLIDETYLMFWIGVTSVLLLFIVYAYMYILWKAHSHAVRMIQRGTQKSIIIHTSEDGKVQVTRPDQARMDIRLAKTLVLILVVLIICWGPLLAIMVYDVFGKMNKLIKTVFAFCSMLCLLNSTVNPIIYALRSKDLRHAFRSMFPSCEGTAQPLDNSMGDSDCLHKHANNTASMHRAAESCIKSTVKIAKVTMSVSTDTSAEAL
Experimental: (§1) The CB1 and CB2 receptor activity of the selected compounds (10 µM) were measured using the GTPγS binding assay according to the previously described methods, [33].
(§2) For ABPP experiments (Figure 6C) and cannabinoid receptor activity assays (Table S2), membranes prepared from brain tissue of 4-week-old male rodents were used. The animals were obtained from the National Laboratory Animal Centre, University of Eastern Finland. Approval for the harvesting of animal tissue was obtained from the local welfare officer of the University of Eastern Finland.

hABHD12 [3] = target: T1, hABHD12; experiment: Reversibility testing, 40-fold dilution of enzyme-inhibitor complex; conditions: time points 10, 20, 30, 60 and 90 min
Experimental: Reversibility testing was carried out as previously described. Briefly, DMSO/inhibitor (0.5 µl) was incubated together with hABHD12-HEK293 lysate (4.5 µl, 0.3 µg protein/well) in TEMN-BSA buffer for 30 min. After this, a 40-fold dilution of enzyme-inhibitor complex was brought about by addition of the substrate [1-AG, 12.5 µM final concentration, containing additionally 1% EtOH (v/v)] in 195 µl of glycerol assay mix and fluorescence was kinetically monitored at 10 min intervals for 90 min at RT.

CB1R [4] = target: T2, CB1R; experiment: [35S]GTPγS binding, CB1R antagonist activity, rat cerebellar membranes; conditions: 10 µM
Experimental: as §1, §2

ABHD12 = target: T3, ABHD12 (Mus musculus, UniProt Q99LR1); experiment: Competitive ABPP with TAMRA-FP in mouse brain membrane proteome; conditions: mouse brain membranes, 1 h inhibitor, 1 h probe
T3 construct: the sole serine hydrolase targeted by the triterpenoids in native brain membrane proteome; from tissue; host or cells: mouse whole-brain membranes
T3 sequence (Q99LR1 1-398): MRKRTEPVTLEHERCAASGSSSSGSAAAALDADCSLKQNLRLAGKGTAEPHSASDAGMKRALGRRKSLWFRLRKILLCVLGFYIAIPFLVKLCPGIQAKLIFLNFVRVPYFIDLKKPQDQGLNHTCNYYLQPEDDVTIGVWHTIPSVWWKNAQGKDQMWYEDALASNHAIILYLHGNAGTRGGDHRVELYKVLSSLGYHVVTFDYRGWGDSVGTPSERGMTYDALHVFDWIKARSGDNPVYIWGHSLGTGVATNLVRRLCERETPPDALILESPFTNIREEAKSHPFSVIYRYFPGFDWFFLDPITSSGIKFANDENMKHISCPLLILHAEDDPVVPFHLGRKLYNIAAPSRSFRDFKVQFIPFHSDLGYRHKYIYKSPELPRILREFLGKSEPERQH
Experimental: Competitive ABPP using HEK293 cell lysates and mouse brain membranes was conducted to visualize effects of selected triterpenoids on the binding of the active site serine-targeting fluorescent fluorophosphonate probe TAMRA-FP following outlines of previous protocols, [31]. Briefly, lysates (25 µg) of HEK293 cells with or without (Mock) hABHD12 overexpression or mouse wholebrain membranes (100 µg) were treated for 1 h with DMSO or the inhibitor, after which TAMRA-FP labelling was conducted for 5 min (lysates) or 1 hour (membranes) at RT (final probe concentration 2 µM). The reaction was quenched by addition of gel loading buffer (followed by boiling for 5 min in the case of lysates), after which 10 µg protein (10 µl) was loaded per lane and the proteins were resolved in 10% SDS-PAGE together with standards. TAMRA-FP labeling was visualized (λex 552; λem 575 nm) by a fluorescent reader (FLA-3000 laser fluorescence scanner, Fujifilm, Tokyo, Japan). The intensity of bands was quantified using ImageJ, a freely available image analysis software (http://rsbweb.nih.gov/ij/).
as §2

hFAAH = target: T4, hFAAH (Homo sapiens, UniProt O00519); experiment: FAAH activity, membranes of hFAAH overexpressing COS-7 cells, 3H-anandamide; conditions: read-out: hFAAH Remaining activity % control (mean (range)), n=2
T4 construct: expressed in transfected cells; host or cells: COS-7
T4 sequence (O00519 1-579): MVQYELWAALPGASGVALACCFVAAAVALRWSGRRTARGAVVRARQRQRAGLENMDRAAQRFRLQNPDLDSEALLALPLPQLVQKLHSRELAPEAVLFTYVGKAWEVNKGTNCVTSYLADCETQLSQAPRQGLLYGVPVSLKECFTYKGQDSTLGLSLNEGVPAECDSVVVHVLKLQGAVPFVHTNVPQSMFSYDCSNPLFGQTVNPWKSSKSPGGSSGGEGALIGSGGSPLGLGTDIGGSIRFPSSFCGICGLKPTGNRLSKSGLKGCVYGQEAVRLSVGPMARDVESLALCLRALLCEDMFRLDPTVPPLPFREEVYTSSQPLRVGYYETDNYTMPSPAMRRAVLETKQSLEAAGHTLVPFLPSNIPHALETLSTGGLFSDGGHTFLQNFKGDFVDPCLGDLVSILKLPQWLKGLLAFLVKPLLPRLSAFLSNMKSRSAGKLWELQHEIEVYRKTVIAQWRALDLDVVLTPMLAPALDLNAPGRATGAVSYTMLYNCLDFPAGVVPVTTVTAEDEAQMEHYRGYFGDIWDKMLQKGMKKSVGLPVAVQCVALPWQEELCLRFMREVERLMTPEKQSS

CC1(C)CC[C@]2(C(=O)O)CC[C@]3(C)C(=CC[C@@H]4[C@@]5(C)C[C@@H](O)[C@H](O)C(C)(C)[C@@H]5CC[C@]43C)[C@@H]2C1 [Compound 8, Maslinic acid, reference compound]
IC50 (hABHD12 [1]; three independent experiments, read-out: -logIC50±s.e.m. (converted)): 1260 nM | Emax (hABHD12 [1]; read-out: max inhibition (converted)): 89% | CB1R agonist activity [35S]GTPγS binding % Basal (Mean (range), n=2) (CB1R [2]): 93 (88-97) % Basal | time-dependency of inhibitor potency (IC50) after 40-fold dilution (hABHD12 [3]): time-dependent drop of inhibitor potency | CB1R antagonist activity [35S]GTPγS binding % HU210-evoked response (Mean (range), n=2) (CB1R [4]): 99 (97-102) % HU210-evoked response | TAMRA-FP probe labeling of ABHD12 (ABHD12): selectively inhibited probe labeling of ABHD12; also recorded: dose-dependently inhibit TAMRA-FP labeling of ABHD12 already at 20 µM | remaining activity at 10 µM (hFAAH): 83%
